Results on 25 compounds are retold here after PubChem BioAssay (NCI).

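Protocol summary: plate cells (96-well), add compound at 5 concentrations, incubate 48 h, interpolate endpoints linearly. Definition used: TGI = concentration required for complete inhibition of growth.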

For the first assay, the system named is A498 renal. The assay can be described thus: NCI tumour cell line growth inhibition, 48 h.
`O=C1CCCc2cc3c(cc21)CC1(Cc2ccccc2C1)C3` showed a TGI of 67 µM.
On the same count and under the same terms, with `COC(=O)c1ccccc1CC1Cc2ccc3c(c2C1=O)CCCC3` (stereo not given) the figure was more than 100 µM; with `COc1ccc2c(c1)/C(=C/CCN(C)C)c1ccccc1S2`, more than 100 µM.
With `N#CC1(C#N)N[C@@H](c2ccsc2)[C@H]2C(=O)N(c3ccccc3)C(=O)[C@H]21`, the TGI is more than 100 µM.
The same measure, in the same setting: to `CC1(C)OC(=O)N(c2ccccc2)C12C=Cc1cc([N+](=O)[O-])cc([N+](=O)[O-])c1O2` (stereo not given) belongs more than 100 µM.

Another assay has as its system SK-MEL-5 melanoma. The assay can be described thus: NCI tumour cell line growth inhibition, 48 h.
The compound `CCOC(=O)c1csc(NC(=O)CN2CCOCC2)n1` gave a TGI of more than 100 µM.
Regarding `CC(=O)NC(Cc1ccc(O)cc1)C(=O)O` (stereo not given), the TGI was more than 100 µM.
As to `Cc1ccc(N=NC(=Nc2ccccc2)c2ccc(N(CCC#N)CCC#N)cc2)cc1`, the TGI came to 47 µM.
Same read-out and setting: with `O=c1ccc(-c2ccccc2)n[nH]1` the figure was more than 100 µM; with `CC(=O)O[C@@H]1[C@H](C(C)C)[C@@H](OC(C)=O)C/C(C)=C/CC[C@]2(C)O[C@@H]12`, more than 100 µM.
Still for that read-out and setting: with `C1CN(c2nc3c(nnc4nc(N5CCOCC5)sc43)s2)CCO1` the figure was more than 100 µM; with `COc1ccc2cc(NC(=O)N/N=C\c3ccc([N+](=O)[O-])cc3)ccc2c1`, more than 100 µM; with `COc1ccc(N/N=C2\CCOc3ccc(C)cc3C2=O)cc1`, 50.6 µM.
`ClCCN1CCC2(CC1)SSC1(CCN(CCCl)CC1)S2` showed a TGI of more than 100 µM.
The same measure, in the same setting: to `Nc1nc(SCCc2ccccc2)c2[nH]cnc2n1` belongs more than 100 µM.
On the same count and under the same terms, to `Cc1nc2n(c1/C=C1/C(=O)Nc3cccc(Cl)c31)CCS2` belongs more than 100 µM.
`CCOC(=O)C(SCCO)C(C(=O)OCC)n1cnc2c(=O)[nH]c(NC(C)=O)nc21` (stereo not given) yielded a TGI of more than 100 µM.
Same read-out and setting: to `COCO[C@@H]1C[C@H]2C(=O)Nc3ccccc3C(=O)N2C1` belongs more than 100 µM.
On the same count and under the same terms, to `Cc1ccc(Cl)c2[nH]c(-c3ccccc3)cc(=O)c12` belongs more than 100 µM.
The same measure, in the same setting: with `CC(C)(C)OC(=O)NCCCCC1NC(=O)[C@@H]2Cc3c([nH]c4ccccc34)C(C3CCCCC3)N2C1=O` (stereo not given in full) the figure was more than 100 µM; with `O=[N+]([O-])c1ccc2c(c1)c(OCc1ccccc1)nn2Cc1ccccc1`, more than 100 µM; with `O=C1CCCc2cc3c(cc21)CC1(Cc2ccccc2C1)C3`, 16.2 µM.
For the compound `COC(=O)c1ccccc1CC1Cc2ccc3c(c2C1=O)CCCC3` (stereo not given), the TGI was 34.8 µM.
`COc1ccc2c(c1)/C(=C/CCN(C)C)c1ccccc1S2` had a TGI of 31.7 µM.
The same measure, in the same setting: with `N#CC1(C#N)N[C@@H](c2ccsc2)[C@H]2C(=O)N(c3ccccc3)C(=O)[C@H]21` the figure was more than 100 µM; with `CC1(C)OC(=O)N(c2ccccc2)C12C=Cc1cc([N+](=O)[O-])cc([N+](=O)[O-])c1O2` (stereo not given), more than 100 µM.

A further assay deals with HCT-116 colon. The assay can be described thus: NCI tumour cell line growth inhibition, 48 h.
Compound `COc1ccc(-c2cc(O)c3nc4ccccc4n3c2)cc1` returned a TGI of more than 100 µM.
Turning to `CC(=O)NC(Cc1ccc(O)cc1)C(=O)O` (stereo not given), the TGI is more than 100 µM.
Take `Cc1ccc(N=NC(=Nc2ccccc2)c2ccc(N(CCC#N)CCC#N)cc2)cc1`: the TGI was more than 100 µM.
With `O=c1ccc(-c2ccccc2)n[nH]1`, the TGI is more than 100 µM.
The compound `CC(=O)O[C@@H]1[C@H](C(C)C)[C@@H](OC(C)=O)C/C(C)=C/CC[C@]2(C)O[C@@H]12` registered a TGI of more than 100 µM.
Same read-out and setting: to `C[C@@H]1CC[C@]2(C(=O)O)CC[C@]3(C)C(=CC[C@@H]4[C@@]5(C)CC[C@H](O)C(C)(C)[C@@H]5CC[C@]43C)[C@@H]2[C@]1(C)O` belongs 24.6 µM.
In turn, `O=C(N/N=C(/COc1ccc(Cl)cc1)N=Cc1ccncc1)c1ccncc1` had a TGI of more than 100 µM.
Compound `C1CN(c2nc3c(nnc4nc(N5CCOCC5)sc43)s2)CCO1` showed a TGI of more than 100 µM.
`COc1ccc2cc(NC(=O)N/N=C\c3ccc([N+](=O)[O-])cc3)ccc2c1` had a TGI of more than 100 µM.
Same read-out and setting: with `COc1ccc(N/N=C2\CCOc3ccc(C)cc3C2=O)cc1` the figure was more than 100 µM; with `ClCCN1CCC2(CC1)SSC1(CCN(CCCl)CC1)S2`, more than 100 µM.
The same measure, in the same setting: to `Nc1nc(SCCc2ccccc2)c2[nH]cnc2n1` belongs more than 100 µM; to `Cc1nc2n(c1/C=C1/C(=O)Nc3cccc(Cl)c31)CCS2`, more than 100 µM; to `CCOC(=O)C(SCCO)C(C(=O)OCC)n1cnc2c(=O)[nH]c(NC(C)=O)nc21` (stereo not given), more than 100 µM.
Take `c1ccc(-c2nc(-c3ccccc3SSc3ccccc3-c3nc(-c4ccccc4)nn3-c3ccccc3)n(-c3ccccc3)n2)cc1`: the TGI was more than 100 µM.
For `COCO[C@@H]1C[C@H]2C(=O)Nc3ccccc3C(=O)N2C1`, the TGI was more than 100 µM.
On the same count and under the same terms, to `Cc1ccc(Cl)c2[nH]c(-c3ccccc3)cc(=O)c12` belongs more than 100 µM; to `CC(C)(C)OC(=O)NCCCCC1NC(=O)[C@@H]2Cc3c([nH]c4ccccc34)C(C3CCCCC3)N2C1=O` (stereo not given in full), more than 100 µM.
The compound `O=C1CCCc2cc3c(cc21)CC1(Cc2ccccc2C1)C3` yielded a TGI of 13.6 µM.
Consider `COC(=O)c1ccccc1CC1Cc2ccc3c(c2C1=O)CCCC3` (stereo not given), for which the TGI is more than 100 µM.
On the same count and under the same terms, with `COc1ccc2c(c1)/C(=C/CCN(C)C)c1ccccc1S2` the figure was more than 100 µM; with `N#CC1(C#N)N[C@@H](c2ccsc2)[C@H]2C(=O)N(c3ccccc3)C(=O)[C@H]21`, more than 100 µM.
Same read-out and setting: with `CC1(C)OC(=O)N(c2ccccc2)C12C=Cc1cc([N+](=O)[O-])cc([N+](=O)[O-])c1O2` (stereo not given) the figure was more than 100 µM.

A further assay has as its system SNB-19 CNS. In words: NCI tumour cell line growth inhibition, 48 h.
`COc1ccc(-c2cc(O)c3nc4ccccc4n3c2)cc1` returned a TGI of more than 100 µM.
`CCOC(=O)c1csc(NC(=O)CN2CCOCC2)n1` gave a TGI of more than 100 µM.
`CC(=O)NC(Cc1ccc(O)cc1)C(=O)O` (stereo not given): the TGI is more than 100 µM.
The same measure, in the same setting: with `Cc1ccc(N=NC(=Nc2ccccc2)c2ccc(N(CCC#N)CCC#N)cc2)cc1` the figure was more than 100 µM; with `O=c1ccc(-c2ccccc2)n[nH]1`, more than 100 µM; with `CC(=O)O[C@@H]1[C@H](C(C)C)[C@@H](OC(C)=O)C/C(C)=C/CC[C@]2(C)O[C@@H]12`, more than 100 µM.
The compound `C[C@@H]1CC[C@]2(C(=O)O)CC[C@]3(C)C(=CC[C@@H]4[C@@]5(C)CC[C@H](O)C(C)(C)[C@@H]5CC[C@]43C)[C@@H]2[C@]1(C)O` gave a TGI of 29.7 µM.
On to `O=C(N/N=C(/COc1ccc(Cl)cc1)N=Cc1ccncc1)c1ccncc1`, for which the TGI is more than 100 µM.
Take `C1CN(c2nc3c(nnc4nc(N5CCOCC5)sc43)s2)CCO1`: the TGI was more than 100 µM.
On the same count and under the same terms, with `COc1ccc2cc(NC(=O)N/N=C\c3ccc([N+](=O)[O-])cc3)ccc2c1` the figure was 47.9 µM.
With `COc1ccc(N/N=C2\CCOc3ccc(C)cc3C2=O)cc1`, the TGI was more than 100 µM.
The same measure, in the same setting: with `ClCCN1CCC2(CC1)SSC1(CCN(CCCl)CC1)S2` the figure was more than 100 µM; with `Nc1nc(SCCc2ccccc2)c2[nH]cnc2n1`, more than 100 µM; with `Cc1nc2n(c1/C=C1/C(=O)Nc3cccc(Cl)c31)CCS2`, 62.5 µM.
The same measure, in the same setting: to `CCOC(=O)C(SCCO)C(C(=O)OCC)n1cnc2c(=O)[nH]c(NC(C)=O)nc21` (stereo not given) belongs more than 100 µM.
Turning to `c1ccc(-c2nc(-c3ccccc3SSc3ccccc3-c3nc(-c4ccccc4)nn3-c3ccccc3)n(-c3ccccc3)n2)cc1`, the TGI is more than 100 µM.
